Holding throughout (conditions): Canis lupus familiaris
Experiment [1] relates to Canis familiaris. In words: Beta-adrenergic blocking activity in anesthetized dog, by the inhibition of isoproterenol -induced bronchodilatation after iv administration; No effect at dose up to 1 to 3 mg/kg iv. It is filed as functional, organism-based.
In experiment [2] the test system is Canis familiaris. Kind of experiment: Beta-adrenergic blocking activity in anesthetized dog, by the inhibition of isoproterenol -induced hypotension after iv administration; No effect at dose up to 1 to 3 mg/kg iv. The format is functional, organism-based.
Experiment [3] relates to Canis familiaris. In words: Beta-adrenergic blocking activity in anesthetized dog, by the inhibition of isoproterenol -induced tachycardia after iv administration; No effect at dose up to 1 to 3 mg/kg iv. The format is functional, organism-based.
Experiment [4] has as its system Canis familiaris. In words: Beta-adrenergic blocking activity in anesthetized dog, by the inhibition of isoproterenol -induced bronchodilatation after iv administration. It is filed as functional.
For experiment [5], the system named is Canis familiaris. Kind of experiment: Beta-adrenergic blocking activity in anesthetized dog, by the inhibition of isoproterenol -induced hypotension after iv administration. It is filed as functional.
Experiment [6] has as its system Canis familiaris. Kind of experiment: Beta-adrenergic blocking activity in anesthetized dog, by the inhibition of isoproterenol -induced tachycardia after iv administration. The format is functional.
The subject of experiment [7] is Canis familiaris. In words: Beta-adrenergic blocking activity in anesthetized dog, by the inhibition of isoproterenol -induced bronchodilatation after iv administration; No effect at dose up to 1 to 3 mg/kg. The format is functional, organism-based.

The structures appear in SMILES notation.

As a reminder, the ED50 is the dose that gives a 50% effect, or the effect in half of the subjects.

Turning to `O=C(O)C(O)COc1nsnc1N1CCOCC1` (configuration not stated), the ED50 entry in experiment [1], in experiment [2] and in experiment [3] was “No effect” each time.

As to `CC(C)(C)NC[C@H](O)COc1nsnc1N1CCOCC1` [TIMOLOL], the ED50 came out at 0.9 µg/kg in experiment [4], 2.8 µg/kg in experiment [5] and 5.5 µg/kg in experiment [6].

Regarding `CC(C)(C)NCC(O)COc1nsnc1NCCO` (configuration not stated), the ED50 in experiment [4] is 5.4 µg/kg; in experiment [5], 19.9 µg/kg; in experiment [6], 38.1 µg/kg.

For `CC(C)(C)NCC(O)COc1nsnc1N(CCO)CC(=O)O` (configuration not stated), the ED50 result in experiment [7], in experiment [2] and in experiment [3] was “No effect” each time.

Values taken from ChEMBL document CHEMBL1121622, “Urinary metabolites of timolol from humans and laboratory animals. Syntheses and beta-adrenergic blocking activities” (1980).
